Reference: the Kinase Knowledgebase extract (Sharma et al. 2016)
pIC50: −log10 of the molar value.

Tests used:
Test in all cases: Enzyme Assay
PIK3CB (Human) = PIK3CB (Human) (UniProt P42338)
PIK3CG (human) = PIK3CG (human) (UniProt P48736)
PIK3CA (human) = PIK3CA (human) (UniProt P42336)
PIK3CD (Human) = PIK3CD (Human) (UniProt O00329)
Chain of PIK3CD (Human) (O00329 whole entry, looked up): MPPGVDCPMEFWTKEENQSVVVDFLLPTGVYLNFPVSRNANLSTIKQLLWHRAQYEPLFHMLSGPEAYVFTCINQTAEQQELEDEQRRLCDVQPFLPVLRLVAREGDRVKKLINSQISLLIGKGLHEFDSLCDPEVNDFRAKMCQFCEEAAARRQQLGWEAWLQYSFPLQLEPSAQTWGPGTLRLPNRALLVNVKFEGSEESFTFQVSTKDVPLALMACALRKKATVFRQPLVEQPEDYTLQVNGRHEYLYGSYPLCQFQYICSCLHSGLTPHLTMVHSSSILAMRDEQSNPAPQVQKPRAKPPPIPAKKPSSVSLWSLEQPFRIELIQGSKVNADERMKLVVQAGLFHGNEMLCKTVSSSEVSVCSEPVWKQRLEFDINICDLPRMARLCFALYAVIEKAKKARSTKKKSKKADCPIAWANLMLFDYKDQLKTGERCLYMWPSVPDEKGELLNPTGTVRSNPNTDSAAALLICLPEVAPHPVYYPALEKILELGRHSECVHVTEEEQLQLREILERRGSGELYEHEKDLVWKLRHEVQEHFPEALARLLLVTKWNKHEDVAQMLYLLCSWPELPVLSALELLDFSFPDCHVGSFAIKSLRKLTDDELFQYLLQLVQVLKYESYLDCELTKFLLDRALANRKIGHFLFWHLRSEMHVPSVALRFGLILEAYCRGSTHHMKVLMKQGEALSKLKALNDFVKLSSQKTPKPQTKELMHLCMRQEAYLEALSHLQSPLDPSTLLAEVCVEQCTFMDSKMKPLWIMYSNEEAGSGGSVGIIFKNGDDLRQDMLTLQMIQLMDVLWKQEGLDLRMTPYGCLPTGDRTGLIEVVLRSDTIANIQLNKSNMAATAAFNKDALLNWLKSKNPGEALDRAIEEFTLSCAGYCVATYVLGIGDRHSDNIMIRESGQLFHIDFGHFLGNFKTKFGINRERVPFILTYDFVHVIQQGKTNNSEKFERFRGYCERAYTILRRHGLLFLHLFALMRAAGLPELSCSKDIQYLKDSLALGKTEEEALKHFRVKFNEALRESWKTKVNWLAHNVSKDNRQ

Chain of PIK3CB (Human) (P42338 whole entry, looked up): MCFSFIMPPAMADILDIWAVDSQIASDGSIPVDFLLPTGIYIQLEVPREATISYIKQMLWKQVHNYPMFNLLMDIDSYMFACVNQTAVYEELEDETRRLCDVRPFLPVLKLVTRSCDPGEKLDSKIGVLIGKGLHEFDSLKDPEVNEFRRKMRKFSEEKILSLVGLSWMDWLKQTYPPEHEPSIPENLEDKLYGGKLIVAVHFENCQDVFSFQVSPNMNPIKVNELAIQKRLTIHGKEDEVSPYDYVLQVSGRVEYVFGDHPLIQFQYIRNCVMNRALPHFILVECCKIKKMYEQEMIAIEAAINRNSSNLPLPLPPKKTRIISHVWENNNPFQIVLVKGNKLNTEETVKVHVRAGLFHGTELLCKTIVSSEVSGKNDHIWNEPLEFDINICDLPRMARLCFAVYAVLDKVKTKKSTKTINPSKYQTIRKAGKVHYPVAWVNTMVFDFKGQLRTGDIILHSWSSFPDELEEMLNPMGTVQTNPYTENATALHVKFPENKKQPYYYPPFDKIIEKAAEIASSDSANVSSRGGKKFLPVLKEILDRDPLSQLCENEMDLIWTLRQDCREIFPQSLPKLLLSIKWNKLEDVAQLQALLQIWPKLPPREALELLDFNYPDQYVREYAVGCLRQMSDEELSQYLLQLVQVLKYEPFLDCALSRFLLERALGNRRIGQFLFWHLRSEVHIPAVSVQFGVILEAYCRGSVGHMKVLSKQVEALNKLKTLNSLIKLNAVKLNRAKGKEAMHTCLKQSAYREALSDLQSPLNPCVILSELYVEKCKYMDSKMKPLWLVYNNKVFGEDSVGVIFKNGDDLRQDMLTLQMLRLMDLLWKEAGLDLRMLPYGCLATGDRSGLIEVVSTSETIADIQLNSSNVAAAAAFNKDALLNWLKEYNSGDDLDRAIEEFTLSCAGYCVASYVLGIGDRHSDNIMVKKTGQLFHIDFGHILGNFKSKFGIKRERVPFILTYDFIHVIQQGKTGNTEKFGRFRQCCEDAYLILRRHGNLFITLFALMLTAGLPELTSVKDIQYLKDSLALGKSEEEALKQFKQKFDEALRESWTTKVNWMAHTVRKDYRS
Chain of PIK3CG (human) (P48736 whole entry, looked up): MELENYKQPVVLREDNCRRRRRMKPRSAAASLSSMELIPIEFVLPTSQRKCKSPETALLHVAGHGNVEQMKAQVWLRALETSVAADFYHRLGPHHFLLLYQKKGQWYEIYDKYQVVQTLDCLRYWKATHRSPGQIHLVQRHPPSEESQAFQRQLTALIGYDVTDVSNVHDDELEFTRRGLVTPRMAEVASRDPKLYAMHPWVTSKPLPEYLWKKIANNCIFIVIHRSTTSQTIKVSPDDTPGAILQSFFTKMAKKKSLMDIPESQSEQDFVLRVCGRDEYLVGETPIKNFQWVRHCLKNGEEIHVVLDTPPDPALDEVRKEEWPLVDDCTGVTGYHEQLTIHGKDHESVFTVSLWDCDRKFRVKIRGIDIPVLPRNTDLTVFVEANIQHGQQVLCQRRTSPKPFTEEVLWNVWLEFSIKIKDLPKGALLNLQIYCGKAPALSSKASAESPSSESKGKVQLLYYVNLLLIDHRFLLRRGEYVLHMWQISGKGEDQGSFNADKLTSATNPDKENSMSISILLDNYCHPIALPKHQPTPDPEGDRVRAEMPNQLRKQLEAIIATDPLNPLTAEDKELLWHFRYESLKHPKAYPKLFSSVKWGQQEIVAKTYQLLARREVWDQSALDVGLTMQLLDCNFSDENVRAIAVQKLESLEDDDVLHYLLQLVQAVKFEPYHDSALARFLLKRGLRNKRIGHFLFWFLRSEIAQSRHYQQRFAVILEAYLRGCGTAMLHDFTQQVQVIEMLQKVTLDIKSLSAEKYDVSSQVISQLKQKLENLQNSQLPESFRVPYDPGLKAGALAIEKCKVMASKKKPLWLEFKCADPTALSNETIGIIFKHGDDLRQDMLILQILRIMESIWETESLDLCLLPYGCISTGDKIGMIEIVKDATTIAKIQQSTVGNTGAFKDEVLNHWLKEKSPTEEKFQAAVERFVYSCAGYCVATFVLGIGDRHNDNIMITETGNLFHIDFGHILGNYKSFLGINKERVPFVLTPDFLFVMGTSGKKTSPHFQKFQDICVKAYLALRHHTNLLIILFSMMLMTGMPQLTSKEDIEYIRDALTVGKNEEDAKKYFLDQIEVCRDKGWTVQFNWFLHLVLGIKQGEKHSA
Chain of PIK3CA (human) (P42336 whole entry, looked up): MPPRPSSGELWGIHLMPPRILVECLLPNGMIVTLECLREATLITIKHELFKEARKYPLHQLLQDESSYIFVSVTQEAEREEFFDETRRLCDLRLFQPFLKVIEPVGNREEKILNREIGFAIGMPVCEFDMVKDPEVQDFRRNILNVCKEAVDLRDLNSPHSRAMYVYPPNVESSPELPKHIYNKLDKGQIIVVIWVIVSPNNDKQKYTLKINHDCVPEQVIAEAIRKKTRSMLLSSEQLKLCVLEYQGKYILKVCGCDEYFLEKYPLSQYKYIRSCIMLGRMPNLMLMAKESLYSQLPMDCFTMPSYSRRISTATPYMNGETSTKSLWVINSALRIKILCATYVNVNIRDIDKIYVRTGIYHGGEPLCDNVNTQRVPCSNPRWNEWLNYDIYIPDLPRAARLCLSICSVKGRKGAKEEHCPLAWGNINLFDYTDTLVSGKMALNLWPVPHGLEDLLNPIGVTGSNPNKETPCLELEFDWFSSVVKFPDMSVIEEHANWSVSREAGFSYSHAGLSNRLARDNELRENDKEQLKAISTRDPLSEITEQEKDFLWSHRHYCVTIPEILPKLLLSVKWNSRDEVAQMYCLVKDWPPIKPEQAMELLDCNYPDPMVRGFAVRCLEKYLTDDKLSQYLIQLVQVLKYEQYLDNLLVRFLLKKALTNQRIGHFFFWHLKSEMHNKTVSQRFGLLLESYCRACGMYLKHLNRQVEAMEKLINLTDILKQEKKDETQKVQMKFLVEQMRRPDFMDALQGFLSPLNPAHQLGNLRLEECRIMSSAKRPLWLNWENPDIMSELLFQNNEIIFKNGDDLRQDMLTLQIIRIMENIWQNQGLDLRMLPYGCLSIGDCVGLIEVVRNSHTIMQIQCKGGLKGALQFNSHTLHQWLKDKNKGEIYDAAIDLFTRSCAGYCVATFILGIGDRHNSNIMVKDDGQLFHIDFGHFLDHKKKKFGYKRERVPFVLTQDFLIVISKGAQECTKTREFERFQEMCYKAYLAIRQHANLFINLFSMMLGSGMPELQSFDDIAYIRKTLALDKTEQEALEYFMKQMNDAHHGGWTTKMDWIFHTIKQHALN

Nc1ncc(-c2cc(N3C(=O)O[C@H]4[C@H](O)CC[C@H]43)nc(N3CCOCC3)n2)c(C(F)(F)F)n1
pIC50 (PIK3CB (Human)): 7.32
pIC50 (PIK3CG (human)): 6.84
pIC50 (PIK3CA (human)): 8.22

C[C@@H](O)C[C@H]1OC(=O)N(c2cc(-c3cnc(N)nc3C(F)(F)F)nc(N3CCOCC3)n2)[C@H]1C
pIC50 (PIK3CA (human)): 8.30

Nc1cc(C(F)(F)F)c(-c2cc(N3CCS(=O)(=O)CC3)nc(N3CCOCC3)n2)cn1
pIC50 (PIK3CB (Human)): 5.56
pIC50 (PIK3CD (Human)): 5.64
pIC50 (PIK3CG (human)): 5.33
pIC50 (PIK3CA (human)): 6.23

Nc1ncc(-c2cc(N3CCOCC3)nc(N3CCOCC3)n2)c(C(F)(F)F)n1
pIC50 (PIK3CD (Human)): 7.10
pIC50 (PIK3CG (human)): 6.33

Nc1cc(C(F)(F)F)c(-c2cc(N3CCN(c4ccccc4)C3=O)nc(N3CCOCC3)n2)cn1
pIC50 (PIK3CB (Human)): 6.72
pIC50 (PIK3CD (Human)): 6.82
pIC50 (PIK3CG (human)): 5.06
pIC50 (PIK3CA (human)): 6.97

C[C@H]1[C@@H](CC(C)(C)O)OC(=O)N1c1cc(-c2cnc(N)nc2C(F)(F)F)nc(N2CCOCC2)n1.C[C@H]1[C@H](CC(C)(C)O)OC(=O)N1c1cc(-c2cnc(N)nc2C(F)(F)F)nc(N2CCOCC2)n1
pIC50 (PIK3CB (Human)): 6.91
pIC50 (PIK3CG (human)): 6.54
pIC50 (PIK3CA (human)): 8.30

Nc1cc(C(F)(F)F)c(-c2cc(N3CCC(=O)CC3)nc(N3CCOCC3)n2)cn1
pIC50 (PIK3CB (Human)): 5.90
pIC50 (PIK3CD (Human)): 6.16
pIC50 (PIK3CG (human)): 5.36
pIC50 (PIK3CA (human)): 6.44

Nc1ncc(-c2cc(N3C(=O)OC[C@@H]3CO)nc(N3CCOCC3)n2)c(C(F)(F)F)n1
pIC50 (PIK3CB (Human)): 8.22
pIC50 (PIK3CD (Human)): 7.77
pIC50 (PIK3CG (human)): 6.28
pIC50 (PIK3CA (human)): 7.68

Nc1cc(C(F)(F)F)c(-c2cc(N3CCCCC3=O)nc(N3CCOCC3)n2)cn1
pIC50 (PIK3CB (Human)): 6.67
pIC50 (PIK3CD (Human)): 6.53
pIC50 (PIK3CG (human)): 5.28
pIC50 (PIK3CA (human)): 6.90

C[C@H](O)C[C@H]1OC(=O)N(c2cc(-c3cnc(N)nc3C(F)(F)F)nc(N3CCOCC3)n2)[C@H]1C
pIC50 (PIK3CB (Human)): 7.96
pIC50 (PIK3CG (human)): 6.69
pIC50 (PIK3CA (human)): 8.30

Nc1cc(C(F)(F)F)c(-c2cc(N3CCOC(c4ccccc4)C3)nc(N3CCOCC3)n2)cn1 (stereo not given)
pIC50 (PIK3CB (Human)): 6.06
pIC50 (PIK3CD (Human)): 5.98
pIC50 (PIK3CA (human)): 6.87
